Consider seven compounds from ChEMBL document CHEMBL3430912, “GSK Tres Cantos Anti-Kinetoplastid Screening (TCAKS) Data”.

In general, IC50 refers to the concentration that gives 50% inhibition.

The subject of series [1] is Trypanosoma cruzi. As to the kind of experiment: GSK_TCAKS: pIC50 Trypanosoma cruzi viability assay using beta-GAL activity. This assay was run at single shot at 5uM compound concentration per well. The biological reagents consisted of NIH-3T3 host cells and trypomastigotes parasitic cells; both cell types were set to a 3.3 * 10^5 cells/mL dilution in assay DMEM by means of a CASY cell counter device using a 60um capillary. 6 uL of the mixture were dispensed per well (about 1 * 10^3 host-cells and 1 * 10^3 parasites) with a Multidrop Combi dispenser. […] In all wells, the percentage of DMSO never exceeded 0.5%. Plates incubated for four days at 37C, 5% CO2. The substrate used for the assay fluorescence intensity (FLINT) readout was resorufin-beta-D-galactopiranoside (Sigma-Aldrich) at 5uM per well. It was diluted in PBS supplemented with the soft detergent Igepal (Fluka). The series is classed as functional, organism-based, Mus musculus. Conditions: Tulahuen, NIH3T3.

In series [2] the test system is Trypanosoma cruzi. Nature of the series: (§1) GSK_TCAKS: pIC50 Trypanosoma cruzi Imaging: Infected Cells. […] Cells were then washed once with PBS before infection. T. cruzi trypomastigotes, collected at days 5 to 8 after infection from LLC-MK2 parasite infected cultures, were allowed to swim out for 4h at 37C from a centrifuged pellet (2,500 rpm/10 min/room temperature). Trypomastigotes were then collected and counted in a CASY Cell Counter. Trypomastigotes, in supplemented DMEM, were added to H9c2 cultures in a multiplicity of infection of 1 and incubated for 18 h. Cells were washed once with PBS before incubation of the infected H9c2 monolayer with trypsin (Life-Technologies) to detach cells from the flask. Cells were counted in a CASY Cell Counter using a 150 um capillary and their density set at 5 * 10^4 cells per mL in supplemented assay DMEM. Infected H9c2 were dispensed into 384-well poly-lysine coated assay plates at 50uL per well using a Multidrop Combi dispenser. After seeding them, the plates were incubated at 37C, 5% CO2 for 72h. Cultures were then fixed and stained by addition of 50 uL of a solution containing 8% formaldehyde and 4 uM DRAQ5 DNA dye (BioStatus, UK) per well. […] Five images were collected per well for reliable statistical analysis. Automated image analysis was performed with a script developed on Acapella High Content Imaging and Analysis Software (PerkinElmer). Output: percentage of infected cells per well as a second infection marker. The series is classed as functional, organism-based, Rattus norvegicus. Conditions: H9c2, 4 h.

Series [3] has as its system Trypanosoma cruzi. Nature of the series: GSK_TCAKS: pIC50 Trypanosoma cruzi Imaging: Amastigotes/Cell. […] Cells were then washed once with PBS before infection. T. cruzi trypomastigotes, collected at days 5 to 8 after infection from LLC-MK2 parasite infected cultures, were allowed to swim out for 4h at 37C from a centrifuged pellet (2,500 rpm/10 min/room temperature). Trypomastigotes were then collected and counted in a CASY Cell Counter. Trypomastigotes, in supplemented DMEM, were added to H9c2 cultures in a multiplicity of infection of 1 and incubated for 18 h. Cells were washed once with PBS before incubation of the infected H9c2 monolayer with trypsin (Life-Technologies) to detach cells from the flask. Cells were counted in a CASY Cell Counter using a 150 um capillary and their density set at 5 * 10^4 cells per mL in supplemented assay DMEM. Infected H9c2 were dispensed into 384-well poly-lysine coated assay plates at 50uL per well using a Multidrop Combi dispenser. After seeding them, the plates were incubated at 37C, 5% CO2 for 72h. Cultures were then fixed and stained by addition of 50 uL of a solution containing 8% formaldehyde and 4 uM DRAQ5 DNA dye (BioStatus, UK) per well. […] Five images were collected per well for reliable statistical analysis. Automated image analysis was performed with a script developed on Acapella High Content Imaging and Analysis Software (PerkinElmer). Output: number of amastigotes per cell as infection level measurement. The settings on record: H9c2, 4 h. The series is classed as functional, organism-based, Rattus norvegicus.

Series [4] relates to Trypanosoma cruzi. The series is described as §1, with “H2C9” for “Trypanosoma cruzi”, “H9c2 Host Cardiomyocytes.” for “Infected Cells.”, “Number” for “percentage”, “H9c2 Host Cardiomyocytes nuclei to determine drug-related cytotoxicity.” for “infected cells per well as a second infection marker.”. The series is classed as functional, organism-based, Rattus norvegicus. Conditions: H9c2, 4 h.

The subject of series [5] is Leishmania donovani. As to the kind of experiment: GSK_TCAKS: pIC50 Leishmania donovani viability assay using fluorescence intensity. Assay plates (1536-well) were prepared by adding 30nL per well of compound. For single shot assay, the final compound concentration was 5uM. […] Briefly, eGFP LdBOB axenic amastigotes were harvested, fixed and counted in a CASY cell counter (Roche-Applied Science). A final concentration of 1.5 * 10^5 cells per well were prepared in amastigote media containing 500 U/mL penicillin/streptomycin (Invitrogen) and 6uL was dispensed to each experimental well using a Multidrop Combi dispenser (Thermo Scientific). 6uL of assay media was dispensed to control columns used as reference for 100% compound response. Following incubation for 72 h at 37C, 5% CO2, 2 uL of resazurin was added to each well at a final concentration of 0.5 mM in phosphate buffered saline (PBS) with IGEPAL (Sigma-Aldrich), 0.05% (v/v). The series is classed as functional, organism-based. In general terms: Resazurin is reduced to fluorescent resorufin, in cell work by metabolically active cells.

In series [6] the test system is Leishmania donovani. Nature of the series: GSK_TCAKS: pIC50 Leishmania donovani Imaging: Infected Macrophages. Assay plates (384-well) were prepared by adding 250nL of compound to each well. For single shot assay, the final compound concentration was 5 uM. […] Automated image analysis was performed with a script developed on Acapella High Content Imaging and Analysis Software (PerkinElmer). Output: Percent of infected macrophage cells were reported for each well. The series is classed as functional, organism-based, Homo sapiens. The settings on record: THP-1.

The test system of series [7] is Leishmania donovani. As to the kind of experiment: GSK_TCAKS: pIC50 Leishmania donovani Imaging: Amastigotes/Macrophages. Assay plates (384-well) were prepared by adding 250nL of compound to each well. For single shot assay, the final compound concentration was 5 uM. […] Automated image analysis was performed with a script developed on Acapella High Content Imaging and Analysis Software (PerkinElmer). Output: Average number of amastigotes per macrophage cell were reported for each well. Type of series: functional, organism-based, Homo sapiens. Conditions: THP-1.

Series [8] concerns Leishmania donovani. As to the kind of experiment: GSK_TCAKS: pIC50 Leishmania donovani Imaging: THP-1 Host Macrophages. Assay plates (384-well) were prepared by adding 250nL of compound to each well. For single shot assay, the final compound concentration was 5 uM. […] Automated image analysis was performed with a script developed on Acapella High Content Imaging and Analysis Software (PerkinElmer). Output: THP-1 cell count were reported for each well. The series is classed as functional, organism-based, Homo sapiens.

The subject of series [9] is Trypanosoma brucei brucei. Nature of the series: GSK_TCAKS: pIC50 Trypanosoma brucei viability assay using fluorescence intensity. Assay plates (1536-well) were prepared by dispensing 25nL of compound solution per well using an Echo acoustic dispenser (Labcyte). Conditions: Lister 427, 2 h. The series is classed as functional, organism-based.
The test system of series [10] is Trypanosoma brucei brucei. Nature of the series: GSK_TCAKS: pIC50 Trypanosoma brucei viability assay using luminiscence. Assay plates (1536-well) were prepared. T. brucei cultures were harvested and counted in a CASY cell counter. A parasite suspension was prepared at a final concentration of 5 * 10^4 cells/mL in complete HMI9 medium and 6uL was dispensed to all wells containing compounds using a Multidrop Combi dispenser. 6uL of HMI9 media with 0.4% DMSO were dispensed to control columns. Plates were incubated for 24 h at 37C, 5% CO2 then tempered for 10 min at room temperature. ATP content was quantified by adding 4 uL of CellTiter-Glo Reagent (Promega) according to the manufacturer's instructions. Luminescence was measured using a ViewLux. The series is classed as functional, organism-based. The settings on record: Lister 427, CASY. (In ATP-based viability assays light output follows the ATP content of the culture.)

The nature of series [11]: GSK_TCAKS: pIC50 HepG2 human cell line viability assay using luminiscence. […] Seeding density was checked to ensure that new mono-layers were not more than 50% confluent at the time of harvesting. Cell suspension was added to 500 mL of the same medium at a final density of 1.2 * 10^5 cells/mL. This cell suspension was dispensed (25 uL, 3000 cells per well) into 384-well clear-bottom plates using a Multidrop Combi dispenser. Prior to addition of the cell suspension, the screening compounds (250 nL) were pre-dispensed into the plates with an Echo liquid handler. Plates were incubated for 48 h at 37C, 5% CO2. After incubation, plates equilibrated at room temperature for 30 min before proceeding to develop the luminescent signal. The signal developer, CellTiter-Glo Reagent, was allowed to equilibrate at room temperature for 30 min and added to the plates (25uL per well) using a Multidrop Combi dispenser. Plates were left for 10 min at room temperature for stabilization and then read using a ViewLux. The series is classed as toxicity, cell-based.

In series [12] the target is Sterol 14-alpha demethylase (Trypanosoma cruzi (strain CL Brener), UniProt Q7Z1V1). As to the kind of experiment: GSK_TCAKS: pIC50 CYP51 from Trypanosoma cruzi. Type of series: functional.
Chain of Sterol 14-alpha demethylase (Q7Z1V1 whole entry): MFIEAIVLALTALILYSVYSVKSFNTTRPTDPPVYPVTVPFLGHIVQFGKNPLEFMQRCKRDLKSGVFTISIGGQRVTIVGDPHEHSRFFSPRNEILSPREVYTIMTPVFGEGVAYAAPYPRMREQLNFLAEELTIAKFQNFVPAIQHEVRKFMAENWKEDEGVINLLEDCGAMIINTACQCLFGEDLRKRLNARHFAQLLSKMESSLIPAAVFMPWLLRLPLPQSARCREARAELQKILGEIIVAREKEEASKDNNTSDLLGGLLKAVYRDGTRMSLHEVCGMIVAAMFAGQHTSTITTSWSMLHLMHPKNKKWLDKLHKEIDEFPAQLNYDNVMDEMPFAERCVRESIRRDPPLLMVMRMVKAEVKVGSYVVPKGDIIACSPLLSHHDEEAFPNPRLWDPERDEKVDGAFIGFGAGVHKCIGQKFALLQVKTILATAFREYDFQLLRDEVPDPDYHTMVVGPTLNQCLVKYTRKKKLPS

`Cc1nc(N2CC(C)OC(C)C2)sc1C(=O)Nc1ccc2c(c1)OCO2` (centres undefined): the IC50 was 2 µM with Trypanosoma cruzi [1]; 3.98 µM in the series with Trypanosoma cruzi [2]; 2.51 µM with Trypanosoma cruzi [3]; above 50.1 µM in the series with Trypanosoma cruzi [4]; 6.31 µM in the series on Leishmania donovani [5]; 7.94 µM with Leishmania donovani [6]. In addition, the IC50 was 3.16 µM with Leishmania donovani [7]; above 50.1 µM in the series on Leishmania donovani [8]; 39.8 µM in [9]; above 39.8 µM in [10]; 39.8 µM in series [12]. The compound also had an IC50 at 48 h in series [11] above 100 µM.
With `CCC(=O)Nc1ccccc1C(=O)Nc1ccccn1`, the 50% inhibitory concentration (IC50) in the series on Trypanosoma cruzi [1], with Trypanosoma cruzi [2], in the series on Trypanosoma cruzi [3], in the series on Trypanosoma cruzi [4], in the series on Leishmania donovani [5] and in the series with Leishmania donovani [6] was above 50.1 µM in each case. The half-inhibitory concentration (IC50) with Leishmania donovani [7] was above 50.1 µM; with Leishmania donovani [8], above 50.1 µM; in [9], 0.316 µM; in series [10], 0.398 µM; in [12], above 100 µM. Besides, the IC50 at 48 h in series [11] is above 100 µM.
`CCCNC(=O)Nc1cccc(-c2nc3ncccc3o2)c1`: the IC50 is 2.82 µM with Trypanosoma cruzi [1]; 3.98 µM in the series on Trypanosoma cruzi [2]; 3.16 µM with Trypanosoma cruzi [3]; 25.1 µM in the series on Trypanosoma cruzi [4]; 3.16 µM with Leishmania donovani [5]; 12.6 µM in the series on Leishmania donovani [6]. The IC50 in the series with Leishmania donovani [7] was 15.8 µM; in the series on Leishmania donovani [8] it was 20 µM; in [9] it was 0.501 µM; in series [10], 1 µM; in series [12], above 100 µM. The 50% inhibitory concentration (IC50) at 48 h in series [11] is above 100 µM.
As to `COc1cc(Cl)c(C)cc1NC(=O)c1ccc([N+](=O)[O-])s1`, the half-maximal inhibitory concentration (IC50) in the series on Trypanosoma cruzi [1] was 0.631 µM; with Trypanosoma cruzi [2] it was 0.631 µM; in the series with Trypanosoma cruzi [3], 0.501 µM; with Trypanosoma cruzi [4] it was 2.51 µM; in the series on Leishmania donovani [5] it was 7.94 µM; in the series with Leishmania donovani [6] it was 6.31 µM. Besides, the half-maximal inhibitory concentration (IC50) was 5.01 µM in the series with Leishmania donovani [7]; above 50.1 µM in the series with Leishmania donovani [8]; 0.501 µM in [9]; 10 µM in series [10]; 15.8 µM in [12]. In series [11], this compound showed an IC50 at 48 h of 31.6 µM.
In the case of `COc1ccc(-c2cnc(NC(=O)c3cc(-c4ccccn4)n[nH]3)n2C)cc1`, the concentration for half-maximal inhibition (IC50) in the series with Trypanosoma cruzi [1] is 3.55 µM; in the series on Trypanosoma cruzi [2], 5.01 µM; with Trypanosoma cruzi [3], 3.98 µM; with Trypanosoma cruzi [4], above 50.1 µM; with Leishmania donovani [5] it was 3.98 µM; with Leishmania donovani [6] it was 1 µM. Moreover, the IC50 was 0.794 µM in the series with Leishmania donovani [7]; above 50.1 µM with Leishmania donovani [8]; 0.398 µM in series [9]; 10 µM in [10]; 15.8 µM in [12]. The IC50 at 48 h in [11] is above 100 µM.
Turning to `CC(=O)NC1(c2ccccc2)CCN(CC(=O)Nc2ccccc2-c2ccccc2)CC1`, the IC50 in the series with Trypanosoma cruzi [1] was 1.26 µM; in the series on Trypanosoma cruzi [2] it was 7.94 µM; with Trypanosoma cruzi [3], 1.58 µM; with Trypanosoma cruzi [4], above 50.1 µM; with Leishmania donovani [5], 20 µM; with Leishmania donovani [6], above 50.1 µM. The 50% inhibitory concentration (IC50) was 39.8 µM in the series on Leishmania donovani [7]; above 50.1 µM with Leishmania donovani [8]; 0.631 µM in [9]; 0.501 µM in series [10]; 50.1 µM in series [12]. In [11], this compound had an IC50 at 48 h above 100 µM.
For `O=C(Nc1nccs1)c1ccccc1Cn1cc([N+](=O)[O-])cn1`, the IC50 in the series with Trypanosoma cruzi [1], with Trypanosoma cruzi [2], with Trypanosoma cruzi [3], in the series with Trypanosoma cruzi [4], in the series on Leishmania donovani [5] and in the series with Leishmania donovani [6] was above 50.1 µM each time. Besides, the IC50 with Leishmania donovani [7] was above 50.1 µM; with Leishmania donovani [8], above 50.1 µM; in series [9], 0.316 µM; in series [10], 0.501 µM; in series [12], above 100 µM. Also, the IC50 at 48 h in [11] is above 100 µM.
